PubChem BioAssay (NCI)
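Method: 48-hour compound exposure of cells in 96-well plates, five concentrations, linear interpolation of endpoints. Here, GI50 denotes the concentration required for 50% inhibition of growth. At the TGI there is no net growth.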

Experiments:
Assay in all cases: NCI anticancer screen, dose series, 48 h
DU-145 prostate = tested on: DU-145 prostate
MCF7 breast = tested on: MCF7 breast
SF-268 CNS = tested on: SF-268 CNS
HL-60(TB) leukemia = tested on: HL-60(TB) leukemia
RPMI-8226 leukemia = tested on: RPMI-8226 leukemia
SK-MEL-28 melanoma = tested on: SK-MEL-28 melanoma
SR leukemia = tested on: SR leukemia
ACHN renal = tested on: ACHN renal
786-0 renal = tested on: 786-0 renal
KM12 colon = tested on: KM12 colon

SMILES | GI50 (DU-145 prostate) | TGI (DU-145 prostate) | GI50 (MCF7 breast) | TGI (MCF7 breast) | GI50 (SF-268 CNS) | TGI (SF-268 CNS) | GI50 (HL-60(TB) leukemia) | TGI (HL-60(TB) leukemia) | GI50 (RPMI-8226 leukemia) | TGI (RPMI-8226 leukemia) | GI50 (SK-MEL-28 melanoma) | TGI (SK-MEL-28 melanoma) | GI50 (SR leukemia) | TGI (SR leukemia) | GI50 (ACHN renal) | TGI (ACHN renal) | GI50 (786-0 renal) | TGI (786-0 renal) | GI50 (KM12 colon) | TGI (KM12 colon)
COc1cc(OC)c(/C=C/C(=O)c2c(N)cc(OC)cc2OC)c(OC)c1 | 0.608 µM | > 100 µM | 0.395 µM | > 100 µM | 0.609 µM | > 100 µM | 0.3 µM | > 100 µM | 0.815 µM | > 100 µM | 2.18 µM | > 100 µM | 0.242 µM | > 100 µM | 0.722 µM | > 100 µM | 1.49 µM | > 75 µM | 0.303 µM | 47.9 µM
CCN(CCNc1ccc(C)c2sc3cc(Cl)ccc3c(=O)c12)CC(C)(C)O | 13.1 µM | 40.6 µM | 11.7 µM | 26.9 µM | 16.5 µM | 69.4 µM | 12.2 µM | 44.7 µM | 3.86 µM | 22.2 µM | 2.09 µM | 4.34 µM | 9.48 µM | > 100 µM | 12.7 µM | 65 µM | 5.13 µM | 17.7 µM | 2.32 µM | 5.54 µM
O=C(Nc1nc2c(s1)CCc1c-2c(Br)n(Cc2ccccc2)c1Br)c1ccccc1 | 5.19 µM | > 100 µM | 5.38 µM | > 100 µM | 6.03 µM | > 100 µM | 45.3 µM | > 100 µM | 11.4 µM | > 100 µM | 4.34 µM | 70.7 µM | 12.1 µM | > 100 µM | 1.88 µM | 7.35 µM | 2.73 µM | 11.9 µM | 6.19 µM | > 100 µM
CCN(CC)CCS(=O)(=O)CCNc1ccnc2cc(Cl)ccc12 | 2.43 µM | > 32.8 µM | 1.86 µM | > 33.8 µM | 2.86 µM | > 49.5 µM | 1.37 µM | 20 µM | 1.41 µM | 21.6 µM | 4.97 µM | 25.7 µM | 0.812 µM | > 46.3 µM | 1.49 µM | 29.8 µM | 2.84 µM | 19.9 µM | 2.41 µM | > 24.3 µM
Cc1n(Cc2ccc3ccccc3n2)cc[n+]1Cc1ccc2ccccc2c1 | 2.08 µM | 14.8 µM | 0.526 µM | 6.08 µM | 0.784 µM | 14 µM | 0.344 µM | 1.46 µM | 0.376 µM | 6.63 µM | 0.975 µM | 7 µM | 0.565 µM | 3.24 µM | 9.46 µM | 46.4 µM | 4.36 µM | 18.2 µM | 0.488 µM | 3.8 µM
O=CC(O)C(O)C(OC1OC(CO)C(O)C(O)C1O)C(O)CO (stereo not drawn) (tested in a mixture with another compound) | – | > 100 µM | – | > 100 µM | – | > 100 µM | – | 64.1 µM | – | 59.2 µM | – | > 100 µM | – | 33.1 µM | – | > 100 µM | – | > 100 µM | – | 50.8 µM
CCC1=C(c2ccc(OC)cc2)CC[C@]2(CCNC2=O)[C@@H]1C | – | > 100 µM | – | 46.7 µM | – | > 100 µM | – | 69.2 µM | – | 45.7 µM | – | 74.1 µM | – | 76.6 µM | – | 66.8 µM | – | > 100 µM | – | > 91.7 µM
C=CC[PH+](c1ccccc1)c1ccccc1.C=CC[PH+](c1ccccc1)c1ccccc1.[Pt+2].[S-]c1ncccn1.[S-]c1ncccn1 | 23.9 µM | > 100 µM | 4.8 µM | > 100 µM | 25.9 µM | > 100 µM | 7.95 µM | 90.2 µM | 3.16 µM | 17.4 µM | 16.4 µM | 44.5 µM | 3.11 µM | 60.7 µM | 2.14 µM | 5.31 µM | 18.8 µM | 48.1 µM | 28.4 µM | > 100 µM
CC(C)C/C(=N\NC(=O)c1ccncc1)c1cc(Cl)ccc1O | 0.379 µM | 28.9 µM | 0.484 µM | 12.3 µM | 0.399 µM | > 76.6 µM | 0.295 µM | 2.26 µM | 0.461 µM | > 50.7 µM | 2.61 µM | > 69.4 µM | 0.206 µM | 29 µM | 0.157 µM | > 41.1 µM | 0.412 µM | 11.8 µM | 0.389 µM | 57.4 µM
CCOC(=O)C1=C(C)N(Cc2ccc(Cl)cc2Cl)[C@]2(C#N)C(O)=C(Cl)C(Cl)=C(O)[C@]12C#N | 16.7 µM | 38.7 µM | 39.3 µM | > 100 µM | 42.1 µM | > 100 µM | 31.9 µM | 76.9 µM | 21.2 µM | 47.3 µM | > 100 µM | > 100 µM | 16 µM | 38.9 µM | > 100 µM | > 100 µM | > 100 µM | > 100 µM | > 100 µM | > 100 µM
CC/C(=C(/c1ccc(/C=C/C(=O)O)cc1)c1ccc2[nH]ncc2c1)c1ccc(F)cc1Cl | 14.4 µM | 27.6 µM | – | 15.4 µM | 11.9 µM | 27.4 µM | 9.3 µM | 31 µM | 7.72 µM | 41 µM | 7.25 µM | 22.2 µM | 4.03 µM | 29.4 µM | 9.16 µM | 24.3 µM | 7.83 µM | 21.1 µM | 6.79 µM | 21.5 µM
COC(=O)C1=Nc2ccc(F)cc2/C1=C/c1sc(=S)[nH]c1O | 0.222 µM | > 36.2 µM | 0.26 µM | 15 µM | 0.575 µM | 29.9 µM | 0.263 µM | – | 0.305 µM | 3.92 µM | 1.06 µM | > 83.5 µM | 0.0476 µM | > 100 µM | 0.0697 µM | 18 µM | 0.122 µM | 15.1 µM | 0.0734 µM | 10.7 µM
Nc1n[nH]c2ccc([C@@H]3Nc4c(F)cc5[nH]ncc5c4[C@H]4C5CCC(C5)[C@@H]34)cc12 (stereo partly drawn) | 0.419 µM | > 46.2 µM | 0.0702 µM | > 43.4 µM | 2.34 µM | > 47.5 µM | 0.243 µM | 0.642 µM | 0.472 µM | 24.6 µM | 2.19 µM | > 60.7 µM | 0.0779 µM | 15.1 µM | 0.912 µM | > 64.7 µM | 0.74 µM | 25 µM | 0.287 µM | 4.87 µM
